In US11230569B2, “Antiplasmodial compounds” (UNIVERSITY OF CENTRAL FLORIDA RESEARCH FOUNDATION, INC., priority 2018, dated 2022):
Where two headings read alike, the source gives them in different places.

How the values were obtained:
HepG2 human hepatocytes = test: MTS cytotoxicity assay in HepG2 cells (counter screen, selectivity); assay type: cell-based; conditions: for Selectivity Index: Hep G2 cell EC50 : P. falciparum EC50, pure compound library hits
Description: (§1) In the pursuit to discover next generation of antimalarials from novel areas of chemical space, a large library of diverse fungi was screened to discover secondary metabolites active against malaria parasite. […] The Cichewicz fungal collection contains tens of thousands of fungal isolates that were secured from diverse habitats and ecological niches across the United States. It is believed that fungal secondary metabolites, which are underexplored for antimalarial drug discovery, provide a unique opportunity to explore medicinally relevant, but untapped chemical space for the discovery of essential malaria therapeutics. Libraries of 750 pure compounds, and of 460 extracts obtained from diverse fungal sources have been screened for their ability to inhibit intraerythrocytic growth of chloroquine-resistant P. falciparum Dd2 using a SYBR Green I-based fluorescence assay. As a counter screen, the cytotoxicity of the top ten extracts in HepG2 cells was evaluated using the MTS ((3-(4,5 dimethylthiazol-2-yl)-5-(3-carboxymethoxyphenyl)-2-(4-sulfophenyl)-2H-tetrazolium, inner salt) cell proliferation assay. This screening has identified potent and selective novel antiplasmodial compounds. These unique pharmacophores from wide areas of chemical space would provide chemical starting points to develop lead compounds for drugs against malaria.
Cross selectivity for human cells was determined using HepG2 human hepatocytes and an MTS (3-(4,5-Dimethylthiazol-2-yl)-5-(3-carboxymethoxyphenyl)-2-(4-sulfophenyl)-2H-tetrazolium) based cytotoxicity assay. After seeding 2,250 cells per well into 384-well microtiter plates, cells were incubated for 24 h. Next, serial dilutions of compounds were added to the seeded plates and incubated for additional 48 h at 37° C., and 5% CO2. Zero percent growth control wells were incubated with 5% Triton X-100 for 5 min prior to MTS addition and incubated for 4 h at identical growth conditions. Absorbance was then read at 490 nm in a Synergy Neo2 multi-mode reader (BioTek, Winsooki, Vt.) and values were normalized based on detergent lysed and no treatment controls.

PfHDAC1 = PfHDAC1 (Plasmodium falciparum, UniProt Q7K6A1); test: PfHDAC1 assay; assay type: biochemical
PfHDAC1, sequence (Q7K6A1 entry or part of it): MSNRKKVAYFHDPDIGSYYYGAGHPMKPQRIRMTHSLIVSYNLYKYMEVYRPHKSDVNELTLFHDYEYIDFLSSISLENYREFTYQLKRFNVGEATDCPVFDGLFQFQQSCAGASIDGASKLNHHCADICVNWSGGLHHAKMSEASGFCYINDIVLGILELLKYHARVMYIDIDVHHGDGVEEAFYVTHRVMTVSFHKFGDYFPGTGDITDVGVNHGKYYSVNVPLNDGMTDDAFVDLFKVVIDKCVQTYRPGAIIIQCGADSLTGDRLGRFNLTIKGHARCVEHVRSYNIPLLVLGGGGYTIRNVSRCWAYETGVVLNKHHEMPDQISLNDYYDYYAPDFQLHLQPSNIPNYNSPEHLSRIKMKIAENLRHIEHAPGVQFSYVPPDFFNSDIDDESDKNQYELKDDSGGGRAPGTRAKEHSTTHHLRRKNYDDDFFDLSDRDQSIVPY
Description: (§2) Culture followed until 54 HPI. Scale bar represents 1 micron. FIG. 10(B) is a western blot showing acetylation following treatment at 6 HPI with 137LJ57K, initial impure extract of 137LJ57K1.
FIGS. 17-20 provide multiple versions of cyclic tetrapeptides along with their EC50s for various noted assays including Pf, Hep G2 and PfHDAC1 assays

P. falciparum Dd2 = test: SYBR Green I-based fluorescence assay, intraerythrocytic growth inhibition; assay type: cell-based, Plasmodium falciparum
Description: as §1
Ten millimolar compound stocks in DMSO were diluted by ½, ⅕, and/or 1/10 fold dilutions in ultrapure water or RPMI 1640. Varying concentrations of compound were added to culture at a 1% parasitemia and 2% hematocrit in 96-well black plates. Assay conditions maintained maximum DMSO concentrations less than 0.125% per dilution. Positive (baseline 0% growth) controls consisted of Chloroquine at 1 μM final concentration. Following 72 h incubation at 37° C. in 5% CO2, dilution plates were frozen at −80° C. for a minimum of 30 minutes. Dilution plates were allowed to thaw followed by lysis treatment and SYBR Green I incorporation. DNA quantification was determined using a fluorescence reading on a Synergy H4 multimode plate reader set at 485 nm excitation and 530 nm emission as previously reported (Roberts, Iyamu et al. 2016). EC50 was calculated from a dose response curve that was generated from a concentration range of 0-10 μM using GraphPad Prism v5.0.
Different dilutions of the compound/fraction in 1 μl of the culture medium were added to 99 μl of P. falciparum culture at a 1% parasitemia and 2% hematocrit in 96-well plates. Maximum DMSO concentration in the culture never exceeded 0.125%. Chloroquine at 1 μM was used as a positive control to determine the baseline value. Following 72 hours incubation at 37° C., the plates were frozen at −80° C. After thawing, 100 μL of lysis buffer (with SYBR Green I dye 1:10,000) was added to each well and plates were incubated at room temperature for 30 minutes prior to reading.
Culture was maintained following a modified Trager and Jensen protocol.^xxv Multi-drug resistant P. falciparum line Dd2 was grown in RPMI 1640 supplemented with 25 mM HEPES pH 7.4, 26 mM NaHCO3, 2% dextrose, 15 mg/L hypoxanthine, 25 mg/L gentamycin and 0.5% Albumax II in human A+ erythrocytes. Culture was maintained at 4% hematocrit at 37° C. with 5% CO2.
Plates were subsequently frozen at −80° C. to facilitate lysis. After thawing, plates were incubated with 1×SYBR Green I in lysis buffer (20 mM Tris-HCl, 0.08% saponin, 5 mM EDTA, 0.8% Triton X-100) for 45-60 min at room temperature. Fluorescence was measured at an excitation wavelength 485 nm, emission 530 nm in a Synergy Neo2 multi-mode reader (BioTek, Winsooki, Vt.). RFUs were normalized based on chloroquine treated and no treatment controls. For all compounds listed, serial dilutions were prepared in RPMI with final assay conditions of 0.2% DMSO or below.

trophozoites = test: IFA and western blot for acetylation after treatment at 6 HPI; assay type: cell-based; conditions: culture followed until 54 HPI
Description: Culture followed until 54 HPI. Scale bar represents 1 micron.
as §2

P. falciparum = conditions: literature; cited from earlier work
Histone H4 = test: Western blot of parasite extracts with anti-acetyl histone 4 antibody; assay type: cell-based, Plasmodium; conditions: mixed stage culture, EC90 concentrations, 4 hrs
Description: Mixed stage culture was incubated with EC90 concentrations of 130134 Analog 2 and PF1070A for 4 hrs and cell free parasite extracts were subjected to western blot analysis using anti-acetyl histone 4 antibody.
Of the hits found, several have known targets in other model systems, allowing us to expedite target analysis. One such compound is Chlamydocin, a known Class I HDAC inhibitor. Western blot analysis of Plasmodium extracts confirms that analogs of this compound causes hyperacetylation of histone 4 and is suspected to target Plasmodium HDAC1.

[1] = Plasmodium falciparum, Top hits from pure compound library, chloroquine-resistant P. falciparum Dd2, 72 h, read-out: EC50
[2] = Plasmodium falciparum, DD2, 72 h

Compound | Selectivity Index (HepG2 human hepatocytes) | EC50 (P. falciparum Dd2; [2]) | further results
CCC(C)C1NC(=O)C(Cc2ccccc2)NC(=O)C(CCCCCC(=O)C2CO2)NC(=O)C2CCCCN2C1=O (centres unmarked) [Compound 137LJ57K1] | – | – | EC50 (HepG2 human hepatocytes; Homo sapiens, HepG2): 13100 nM; EC50 (PfHDAC1): < 0.2 nM; EC50 (P. falciparum Dd2; Plasmodium falciparum, DD2, read-out: Dd2 EC50 (nM)): 88 nM; hyperacetylation (trophozoites): hyperacetylation during trophozoite stage
CC[C@H]1/C=C/C=C/C[C@@H](C)[C@H](O)[C@@](C)(O)C(=O)[C@@H](C)[C@H](O)[C@@H](C)C(=O)[C@@H](C)[C@H](O)[C@@H](C)/C=C/C(=O)O[C@@H]2[C@H](C)[C@H](CC1)O[C@]1(CC[C@H](C)[C@H](C[C@@H](C)O)O1)[C@H]2C [Compound 120086] | 14.62 | – | EC50 (P. falciparum Dd2; [1]): 361 nM
O=C(c1cc(Cl)c(Cl)[nH]1)c1c(O)cccc1O [Compound 130115] | >32 | 491 nM | –
C[C@@]12OC(=O)[C@]1(C(O)[C@@H]1C=CCCC1)NC(=O)[C@@H]2CCCl (some centres unmarked) [Compound 120066] | 290.28 | 47 nM | –
CC(C)[C@H]1CC[C@@](O)(COC(=O)/C(=C/[C@@H]2[C@@H](C(C)C)CCC3(O)COC(=O)[C@@H]23)CO)[C@H]2C(=O)OCC(C(=O)O)=C[C@H]12 (some centres unmarked) [Compound 130131] | >54 | – | EC50 (P. falciparum Dd2; [1]): 367 nM
CC[C@H](C)[C@@H](C(=O)O[C@@H](CC(C)C)C(=O)N[C@@H](CC(C)C)C(=O)N[C@@H](C)/C=C/C(=O)N1C(=O)C=C(OC)[C@@H]1C)N(C)C [gallinamide A] | – | – | IC50 (P. falciparum): 8400 nM
CC(C)C1CCC(O)(CCl)C2C(=O)OCC(C(=O)O)=CC12 (centres unmarked) [Compound 130130] | 3 | 469 nM | –
COC1=CC(c2ccc[nH]2)=N/C1=C/NCC(C)C [Compound 120036] | 57.31 | – | EC50 (P. falciparum Dd2; [1]): 180 nM
Oc1cc(O)c2c(c1)O[C@H](c1ccc(O)c(O)c1)[C@@H](O)C2 [Compound 120051] | 11.44 | – | EC50 (P. falciparum Dd2; [1]): 47 nM
CC1NC(=O)C(CCCCCC(=O)C2CO2)NC(=O)C2CCCN2C(=O)C(Cc2ccccc2)NC1=O (centres unmarked) [130134 Analog 1, 1-Alanine-chlamydocin] | 3 | 9 nM | hyperacetylation of Histone H4 (Histone H4): causes hyperacetylation of Histone H4
CCC(C)C1NC(=O)C(Cc2ccccc2)NC(=O)C(CCCCCC(=O)C2CO2)NC(=O)C2CCCCN2C1=O (centres unmarked) [130134 Analog 2, PF1070A] | >23 | 37 nM | hyperacetylation of Histone H4 (Histone H4): causes hyperacetylation of Histone H4; selectivity (in words) (HepG2 human hepatocytes): selective; EC50 (P. falciparum Dd2; Plasmodium falciparum, DD2, read-out: EC50 against multidrug resistant malaria): 37 nM
C=C1[C@@H](O)[C@@H]2O[C@]3(CC[C@H](/C=C/[C@@H](C)[C@@H]4CC(C)=C[C@@]5(O[C@H](C[C@@](C)(O)C(=O)O)CC[C@H]5O)O4)O3)CC[C@H]2O[C@@H]1[C@@H](O)C[C@H](C)[C@H]1O[C@@]2(CCCCO2)CC[C@H]1C [Compound 120033] | >77 | 55 nM | –
Chlamydocin [Compound 130134] | 7 | – | EC50 (P. falciparum Dd2; Top hits from pure compound library, chloroquine-resistant P. falciparum Dd2, 72 h, read-out: EC50): 24.7 nM
C/C1=C\[C@H](C)C[C@H](C)CC(=O)C[C@H](c2ccc(O)cc2)NC(=O)[C@@H](Cc2c(Br)[nH]c3ccccc23)N(C)C(=O)[C@H](C)NC(=O)[C@@H](C)C1 [Compound 120030] | >92.25 | 271 nM | –
CC(C)[C@H]1CC[C@@](O)(CCl)[C@H]2C(=O)OCC(C(=O)O)=C[C@H]12 [Compound 130129] | 3 | 361 nM | –
